According to patent US5039665A, “Use of fructose-1,6-diphosphate for treating myocardial infarction” (priority 1990, dated 1991):
Values joined by “and” are separate entries in the source; they are usually repeats but may differ in a detail not shown here. Identical values can stand only once. “Also recorded” adds a separate entry of the source.

Columns and labels:
[1] = system: dogs with acute regional myocardial ischemia; assay: acute regional myocardial ischemia in dogs (coronary artery occlusion); type: in vivo, dog; details: FIG. 3; ischemic and normally perfused myocardium
[2] = system: dogs in surgical anesthesia; assay: anesthetic requirement to maintain surgical anesthesia in dogs; type: in vivo, dog; details: FDP n=104 vs controls n=103
[3] = system: dogs anesthetized with Surital; assay: analeptic effect of intra-carotid administration on Surital (thiamylal) anesthesia in dogs; type: in vivo, dog; details: for time required for return of observable eyelid reflex: after beginning the infusion into the carotid artery (±SDM); for time required to regain walking ability: mean, p<0.001 FDP vs dextrose; for Able To Sit / Able To Walk / Eyes Open / Lifts Head / Response To Pain: time after beginning of infusion, individual dogs
Procedure: In this paired test 10 dogs were anesthetized with Surital 35mg/kg IV. Within 10 minutes after induction of anesthesia, a #7 Sones catheter was placed in a common carotid artery via the femoral artery under fluoroscopic guidance. […] Immediately following the contrast media injection the infusion of FDP or glucose was initiated (9-13 min. after induction of anesthesia). The FDP was prepared as a 5% solution and infused at a constant rate of 1.91 ml/min. (97.5 mg/min.) into a main carotid artery. The controls received equal amounts of 5% dextrose via the same route. The analeptic effect of FDP on signs, stages and depth of anesthesia was evaluated by determining the time required for reappearance of eyelid reflex, opening of eyes, deglutiton, response to pain, lifting of the head, sitting, and when the animal was able to walk.

[4] = system: whole blood; assay: blood preservation: ATP content of refrigerated blood; set-up: species or system dog
Procedure: Blood specimens taken from a number of dogs were mixed with FDP in the following proportions: F1-25mg of FDP per 10ml of blood and F2-50mg of FDP per 10ml of blood. The same proportion was prepared with glucose: G1-25mg of glucose per 10ml of blood and G2-50mg of glucose per 10ml of blood. The blood specimens were refrigerated for 24 hours and then the blood was tested for ATP content after 24 hours 14 days.

[5] = system: dog WBC; assay: carbohydrate metabolism of dog white blood cells in vitro; type: cell-based
Procedure: The tests were also conducted to investigate the effect of FDP on white blood cells (WBC) on metabolism in vitro. […] It was experimentally assessed whether FDP can stimulate the carbohydrate metabolism of these cells at rest. A similar phenomenon observed for normal human erythrocytes, sickle cells and dog erythrocytes. From healthy humans and dogs, the white blood cells were separated and incubated at 37° Celsius for various periods of time with FDP, glucose and normal saline. At the end of incubation, ATP and intermediates of the glycolytic pathway were assessed. […] The pyruvic acid concentration in dog WBC incubated with FDP was 10 times greater than those incubated in glucose while those for the human WBC, this difference was of much lesser degree (X2). The dihydroxyacetone (DHA) in the human and canine WBC was 5 to 10 times greater in the FDP incubated than in the glucose ones.

[6] = system: dogs subjected to endotoxin shock; assay: endotoxin shock in dogs (E. coli endotoxin) with fluid support; type: in vivo, dog
Procedure: The study was also conducted to determine whether IV administration of FDP to dogs subjected to lethal doses of endotoxin will prevent damage to the intestinal mucosa, and death. The rationale was that endotoxin per se and its deleterious effect on hemolate phase acidosis inhibits glycolysis by inactivation of the rate limiting enzyme phosphofructokinase.
Endotoxin shock was produced in digs by IV injection of E. coli endotoxin. Survival of control animals which received glucose and volume replacement was 18%d while for those treated with FDP it was 90%.
FIG. 5 is a diagram showing the intestinal fluid loss and urine output of dogs subjected to endotoxin shock. Seven dogs were treated with equimolar FDP and eight received glucose. All animals received fluid supportive therapy (150 ml. of Rheomacrodex and 300 cc. of Lactate Ringer).
Seven were treated with FDP and the controls (8) received equimolar glucose.

[7] = system: fluid deprived dogs after endotoxin; assay: endotoxin shock in fluid deprived dogs (1 mg/kg endotoxin); type: in vivo, dog; details: no fluid given; three pairs
Source text: In three pairs no fluid was given except for the FDP and glucose.

[8] = system: dogs subjected to toxic doses of Digoxin; assay: digoxin toxicity in dogs; type: in vivo, dog; details: for hemodynamic parameters (cardiac output, arterial pressure): dog, in vivo
Procedure: Dogs subjected to toxic doses of Digoxin were treated with FDP and glucose. […] Also the dogs treated with FDP survived, while the controls treated with Dextrose 5% died within 3 hours after administration of Digoxin. In this paired study 10 anesthesized dogs received 3 mg. IV Digoxin as bolus injection. Five of the digs received 20 minutes after the digoxin injection 1 gm. of FDP and then on 2 mg/kg as a constant infusion for the next 3 hours. The five controls received in the same manner Dextrose 5%. […] (Pi<0.001.).

[9] = system: rabbit ileum; assay: force of contraction of isolated rabbit ileum; details: added to perfusate
Source text: (§1) To allow for a broader and more complete interpretation of the results, a small paragraph will be devoted to the ability of FDP to cross the cellular membranes.

[10] = FDP distribution after intracardiac administration in rat; type: in vivo; details: 10 min after administration
Source text: as §1

[11] = plasma lactic acid after intravenous FDP in dogs; type: in vivo, dog
Source text: as §1

[12] = tissue ATP, lactate, FDP and trioses after IV FDP; type: in vivo; details: IV administration
Source text: as §1

[13] = system: experimental animals and man; assay: antishock activity in experimental animals and in man; details: in vivo
[14] = system: dogs anesthetized with Surital; assay: analeptic effect of intra-carotid administration on Surital (thiamylal) anesthesia in dogs; type: in vivo, dog; details: systemic administration
[15] = system: heart preparation; details: infusion of Locke's solution plus sugar; cited from earlier work
[16] = 25mg per 10ml of blood, 24 hours
[17] = 25mg per 10ml of blood, 48 hours
[18] = 25mg per 10ml of blood, 7 days, Incubate 30' 37°
[19] = 50mg per 10ml of blood, 24 hours
[20] = 50mg per 10ml of blood, 48 hours
[21] = 50mg per 10ml of blood, 7 days, Incubate 30' 37°
[22] = 5 g of FDP IV over 10 min, at one hour

For `O=C(COP(=O)(O)O)[C@@H](O)[C@H](O)[C@H](O)COP(=O)(O)O` [FDP, fructose-1,6-diphosphate], the “ATP and CP content in the myocardium” value [1] was “increase of ATP and CP in ischemic myocardium, but also in the normally perfused heart muscle”, the “tissue lactic acid concentration” value [1] was “The same phenomenon was observed for the tissue lactic acid concentration” and the anesthetic required [2] was “twice as much anesthetic”. The “time required for return of observable eyelid reflex” value [3] was 3.70 ± 0.67 min, the “time to regain consciousness and be able to walk (in words)” value ([3]; intra-carotid administration) was “greatly reduces the time required for the animal to regain consciousness and be able to walk” and the “time required to regain walking ability” value [3] was 76.6 ± 16 min. The “Able To Sit” value [3] was 48 min and 47 min and 35 min and 52 min and 40 min, the “Able To Walk” value [3] was 60 min and 70 min and 50 min and 95 min and 82 min and the “Eyes Open” value [3] was 7 min and 14 min and 5 min and 12 min and 4 min. The “Lifts Head” value [3] was 28 min and 33 min and 14 min and 19 min and 20 min, the “Response To Pain” value [3] was 17 min and 19 min and 10 min and 18 min and 15 min and the ATP [4, 16] was 2.32 m mole/ml. The ATP [4, 17] was 2.34 m mole/ml, the ATP [4, 18] was 0.70 m mole/ml and the ATP ([4]; 25mg per 10ml of blood, 9 days) was 0.82 m mole/ml. For the same compound, the ATP [4, 19] was 3.34 m mole/ml, the ATP [4, 20] was 2.08 m mole/ml and the ATP [4, 21] was 2.16 m mole/ml. The ATP ([4]; 50mg per 10ml of blood, 9 days) was 2.04 m mole/ml, the ATP ([4]; 14 days, Incubate 40' 37°) was 1.3 m mole/ml and the ATP ([4]; 14 days, No incubation) was 1.22 m mole/ml. The “effect on carbohydrate metabolism” value [5] was “profound stimulating effect on the carbohydrate metabolism”, the “concentration dependence of ATP production” value ([5]; 5 to 50 mg/ml FDP, no AMP or ADP) was “independent of the concentration (from 5 to 50 mg/ml), but rather a function of the incubation time” and the “concentration dependence of ATP increase” value ([5]; AMP or ADP added) was “the increase of ATP becomes a function of the FDP concentration”. The “pyruvic acid concentration, FDP versus glucose” value ([5]; dog WBC) was 10 times, the Urinary output ([6]; dog, in vivo) was 276±98 ml/6 hours and the “blood in the fluid lost from the intestine” value ([6]; dog, in vivo) was “no blood was observed; also recorded: no blood was noted”. The intestinal fluid loss ([6]; dog, in vivo) was 285±36 ml/6 hours, the “stomach and intestine mucosa findings” value ([6]; dog, in vivo) was “only some vascular congestion was noted” and the survival ([6]; dog, in vivo) was 90%. For the same compound, the “death, intestinal hemorrhage and fluid loss, renal function, mucosal necrosis” value ([6]; lethal doses of endotoxin) was “prevents death, intestinal hemorrhage and fluid loss, conserves normal renal function and protects the mucosa of the stomach and intestine from hemorrhagic necrosis”, the survival [7] was “survived and are still living (five months after the experiment)” and the survival ([8]; 3 mg. IV Digoxin) was “survived”. The digitalis induced dysarhythmia ([8]; 3 mg. IV Digoxin, FDP 1 gm. then 2 mg/kg infusion for 3 hours) was “suppresses significantly the digitalis induced dysarhythmia”, the “occurrence of dysarhythmia versus controls, significance” value ([8]; P < 0.001) was “significantly less in the group treated with FDP” and the “hemodynamic parameters (cardiac output, arterial pressure)” value [8] was “no alternation in hemodynamic parameters”. The force of contraction [9] was “increases the force of contraction”, the “concentration of FDP in the liver versus plasma” value [10] was “five” and the plasma lactic acid [11, 22] was 16.45±2.16 mg %. The “plasma lactic acid increase” value [11, 22] was 21/2, the plasma lactic acid ([11]; before FDP (baseline)) was 6.13±1.7 mg % and the “ATP, lactate, and FDP in tissues” value [12] was “increase of ATP, lactate, and FDP in all tissues that we have studied”. For the same compound, the “trioses in the Embden-Meyerhof pathway” value [12] was “increases in the trioses”, the antishock activity [13] was “profound antishock activity in experimental animals and in man” and the analeptic effect [14] was “The same analeptic effect, but to a much lesser degree”.
With `O=C[C@H](O)[C@@H](O)[C@H](O)[C@H](O)CO` [glucose, reference compound] the “time required for return of observable eyelid reflex” value [3] was 70.00 ± 25 min, the “time required to regain walking ability” value [3] was 295.00 ± 24.49 min and the “Able To Sit” value [3] was 300 min and 225 min and 310 min and 215 min. The “Able To Walk” value [3] was 310 min and 300 min and 330 min and 280 min and 265 min, the “Eyes Open” value [3] was 80 min and 75 min and 105 min and 54 min and 40 min and the “Lifts Head” value [3] was 170 min and 135 min and 190 min and 165 min and 120 min. The “Response To Pain” value [3] was 120 min and 130 min and 160 min and 125 min and 100 min, the ATP [4, 16] was 0.22 m mole/ml and the ATP [4, 17] was 0.32 m mole/ml. The ATP [4, 18] was 0.28 m mole/ml, the ATP ([4]; 25mg per 10ml of blood, 9 days) was 0.26 m mole/ml and the ATP [4, 19] was 0.44 m mole/ml. The ATP [4, 20] was 0.34 m mole/ml, the ATP [4, 21] was 0.18 m mole/ml and the ATP ([4]; 50mg per 10ml of blood, 9 days) was 0.40 m mole/ml. For the same compound, the ATP ([4]; 14 days, Incubate 40' 37°) was 0.88 m mole/ml, the ATP ([4]; 14 days, No incubation) was 0.40 m mole/ml and the “blood in the fluid lost from the intestine” value ([6]; dog, in vivo) was “In all controls there was blood in the fluid lost from the intestine”. The survival ([6]; dog, in vivo) was 18%, the time to death [7] was 21/2 and the time to death ([8]; after administration of Digoxin) was no more than 3 h. The “hemodynamic parameters (cardiac output, arterial pressure)” value [8] was “decline in arterial pressure, vomiting, and perfused diarrhea” and the “amplitude and frequency of heart beats, lactic acid, pH and potassium during recovery” value [15] was “no significant difference”.
